Results: the NIST ThermoML archive (doi:10.1016/j.tca.2010.08.002)

Test: molar heat capacity at saturation pressure
Conditions: Vacuum adiabatic calorimetry

CCCCn1cc[n+](C)c1.O=S(=O)([O-])C(F)(F)F [1-butyl-3-methylimidazolium trifluoromethanesulfonate]
Conditions	molar heat capacity [J/K/mol]
170.36 K, Crystal	235.9
171.28 K, Crystal	236.8
172.71 K, Crystal	238.3
173.26 K, Crystal	238.8
175.07 K, Crystal	240.6
175.23 K, Crystal	240.9
177.2 K, Crystal	242.9
177.42 K, Crystal	243.1
179.17 K, Crystal	245
179.77 K, Crystal	245.6
181.13 K, Crystal	247.1
182.11 K, Crystal	248.1
183.1 K, Crystal	249.2
184.46 K, Crystal	250.6
185.06 K, Crystal	251.3
186.8 K, Crystal	253.2
187.02 K, Crystal	253.5
188.97 K, Crystal	255.7
189.13 K, Crystal	255.8
190.92 K, Crystal	257.9
191.47 K, Crystal	258.4
192.87 K, Crystal	260
193.8 K, Crystal	260.9
194.82 K, Crystal	262.1
196.12 K, Crystal	263.5
196.77 K, Crystal	264.3
198.44 K, Crystal	266.1
198.72 K, Crystal	266.6
200.66 K, Crystal	268.7
200.76 K, Crystal	268.7
202.67 K, Crystal	271
203.13 K, Crystal	271.4
204.73 K, Crystal	273.3
205.57 K, Crystal	274.2
206.78 K, Crystal	275.7
208 K, Crystal	276.9
208.82 K, Crystal	278.1
210.42 K, Crystal	279.6
210.87 K, Crystal	280.4
212.84 K, Crystal	282.5
212.92 K, Crystal	282.7
214.96 K, Crystal	285
215.25 K, Crystal	285.3
217 K, Crystal	287.4
217.66 K, Crystal	288
219.02 K, Crystal	289.6
220.07 K, Crystal	290.8
221.05 K, Crystal	292.2
222.47 K, Crystal	293.7
223.08 K, Crystal	294.5
224.86 K, Crystal	296.5
225.1 K, Crystal	296.8
227.12 K, Crystal	299.4
227.25 K, Crystal	299.4
229.13 K, Crystal	301.7
229.63 K, Crystal	302.3
231.14 K, Crystal	304
232 K, Crystal	305.2
233.14 K, Crystal	306.6
234.37 K, Crystal	308.1
235.15 K, Crystal	308.9
236.73 K, Crystal	311
237.14 K, Crystal	311.5
239.09 K, Crystal	313.8
239.13 K, Crystal	313.8
241.12 K, Crystal	316.1
241.44 K, Crystal	316.7
243.1 K, Crystal	318.7
243.78 K, Crystal	319.6
245.08 K, Crystal	321
246.12 K, Crystal	322.2
247.06 K, Crystal	323.3
248.45 K, Crystal	325.1
249.03 K, Crystal	325.9
250.76 K, Crystal	328
250.78 K, Crystal	328
250.99 K, Crystal	328.3
252.81 K, Crystal	330.6
252.95 K, Crystal	330.6
253.1 K, Crystal	330.8
254.78 K, Crystal	332.9
254.91 K, Crystal	333.2
255.41 K, Crystal	333.7
256.73 K, Crystal	335.5
256.86 K, Crystal	335.5
257.72 K, Crystal	336.3
258.69 K, Crystal	337.8
258.81 K, Crystal	337.8
260.02 K, Crystal	339.2
260.34 K, Crystal	339.8
260.64 K, Crystal	340.4
260.75 K, Crystal	340.4
262.32 K, Crystal	342.1
262.38 K, Crystal	342.4
262.59 K, Crystal	342.7
262.69 K, Crystal	342.7
264.34 K, Crystal	345
264.53 K, Crystal	345.3
264.6 K, Crystal	345
264.62 K, Crystal	345.3
265.54 K, Crystal	346.1
266.29 K, Crystal	347.3
266.46 K, Crystal	347.6
266.56 K, Crystal	347.6
266.89 K, Crystal	347.9
267.48 K, Crystal	348.7
268.23 K, Crystal	349.9
268.4 K, Crystal	349.9
268.49 K, Crystal	350.2
269.17 K, Crystal	350.7
291.91 K, Liquid	424.4
293.17 K, Liquid	425
293.82 K, Liquid	425.6
294.28 K, Liquid	425.6
295.28 K, Liquid	426.2
295.44 K, Liquid	426.2
295.71 K, Liquid	426.5
297.38 K, Liquid	427
297.43 K, Liquid	427.3
297.61 K, Liquid	427.6
299.48 K, Liquid	428.2
301.69 K, Liquid	429.6
304 K, Liquid	430.8
306.31 K, Liquid	431.9
308.62 K, Liquid	433.1
310.93 K, Liquid	434.5
313.24 K, Liquid	435.7
315.55 K, Liquid	436.8
317.86 K, Liquid	438
320.17 K, Liquid	439.1
322.48 K, Liquid	440.6
324.79 K, Liquid	441.7
327.1 K, Liquid	443.2
329.4 K, Liquid	444.3
331.71 K, Liquid	445.5
334.02 K, Liquid	446.6
336.33 K, Liquid	448.1
338.64 K, Liquid	449.2
340.94 K, Liquid	450.7
343.24 K, Liquid	451.8
345.55 K, Liquid	453
347.85 K, Liquid	454.3
350.16 K, Liquid	455.5
352.47 K, Liquid	456.9
354.77 K, Liquid	458.1
357.08 K, Liquid	459.5
359.38 K, Liquid	460.7
361.68 K, Liquid	461.8
363.99 K, Liquid	463
366.29 K, Liquid	464.4
368.59 K, Liquid	465.6
